# Measured values: patent US20250186467A1, “METHODS OF TREATING MEDICAL CONDITIONS USING STAMPIDINE OR A RELATED COMPOUND” (ROME Therapeutics, Inc., priority 2022, published 2025)
# Tests used:
# Type in all cases: cell-based
# PBMCs = experiment: Decitabine-stimulated human PBMC assay, cell viability; conditions: PBMCs with 10 μM decitabine, 5 days
# Method: After 5 days, the plate was spun down at 100×G for 5 minutes. Supernatants (100 μL) was collected for interferon β (IFN-β) analysis using the MSD assay noted above, and any residual supernatant was stored at −80° C.
# IFN-β = experiment: Decitabine-stimulated human PBMC assay, IFN-β; conditions: PBMCs with anti-CD3/anti-CD28 and 10 μM decitabine, 5 days
# Method: EasySep buffer (32 mL, Stem Cell, cat. #20144) was used to dilute 8 mL of LRSC buffy coat (from fresh Leukopak) with gentle mixing. The diluted buffy coat (20 mL) was transferred into each of two SepMate 50 tubes, and the tubes were filled with 15 mL of Lyphoprep (Stem Cell, ct. #07851) density gradient. The SepMate tubes were then centrifuged at 1200G for 10 minutes at room temperature with the brake on. The top layer of supernatant was collected in SepMate tubes by quickly pouring it into a new 50 mL conical tube. The PBMCs were washed with EasySep buffer×2 by centrifuging at 300G for 5 minutes. The cells were resuspended in 30 mL of EasySep and centrifuged at 100G for 5 minutes with the brake off, and the platelets were removed. The cells were then resuspended in 6 mL of 1× RBC lysis buffer (InvitroGen) and incubated at 37° C. for 5 minutes. Then, 25 mL of EasySep buffer was mixed into the tube and it was centrifuged at 300G for 5 minutes. The cells were resuspended in 10 mL of EasySep buffer and the cells were then counted with Cellometer (AO/PI). The PBMCs were resuspended in RPMI1640 (ThermoFisher)+10% FBS (HyClone)+p/s at 3×10^6/mL. The PBMCs (100 μL, 300 k PBMCs) were then seeded in a 96-well flat bottom microplate (Corning) that had been precoated with 100 μL of anti-CD3 antibody (10 μg/mL in PBS, Biolegend) or PBS at 4° C., one day before the assay was commenced. […]
# THP1-Dual KO-TREX1 cells = experiment: CellTiter-Glo cell viability in THP1 TREX1 KO cells; conditions: highest dose, with 1 μM 5-aza-2′-deoxycytidine, five days
# Method: THP1 Dual TREX1 KO cells were purchased from Invivogen. The THP1-Dual™ KO-TREX1 cells were cultured in RPMI 1640, 10% heat-inactivated fetal bovine serum, 25 mM HEPES, 10 μg/mL Blasticidin, and 100 μg/mL Zeocin. THP1-Dual™ KO-TREX1 cells were treated with a dose titration of test compound in the presence of 1 μM 5-aza-2′-deoxycytidine (Sigma, cat #189825). Type 1 Interferon and cell viability were assessed after five days of treatment.
# Stock solution of test compound was prepared in DMSO followed by a three-fold dilution in DMSO. Additional 50× dilution was prepared in cell culture media for each dilution. 10 μL of diluted test compound was then added to a 384-well plate.
# THP1-Dual™ KO-TREX1 cells were treated with 1 μM 5-aza-2′-deoxycytidine. THP1-Dual™ KO-TREX1 cells (50 μL) were added to each well of the 384-well plate containing test compound titration at 10,000 cells/well. Cells were incubated at 37° C., 5% CO2 in a humidified incubator for five days. […] Luminescence was detected on a plate reader according to manufacturer's instructions. […]
# The remaining cells were assessed for cell viability by adding 30 μl of CellTiter-Glo (Promega, 09683) solution to each well, and placed on a shaker for 10 minutes at room temperature. Luminescence was detected on a plate reader, according to manufacturer's instructions. […]
compound,measurement,setting,value
"COC(=O)[C@H](C)N[P@](=O)(OC[C@@H]1C=C[C@H](n2cc(C)c(=O)[nH]c2=O)O1)Oc1ccc(Br)cc1 [Stampidine, methyl ((S)-(4-bromophenoxy)(((2S,5R)-5-(5-methyl-2,4-dioxo-3,4-dihydropyrimidin-1(2H)-yl)-2,5-dihydrofuran-2-yl)methoxy)phosphoryl)-L-alaninate]",cellular toxicity,PBMCs,without any cellular toxicity
same,inhibition of IFN-β,IFN-β,showed inhibition of IFN-β
same,reduction in cell viability,THP1-Dual KO-TREX1 cells,~15%
